Source: article PMC10298512, “Synthesis and Anticancer Evaluation of Novel 7-Aza-Coumarine-3-Carboxamides” (International Journal of Molecular Sciences, 2023)
Read-outs that look alike come from different tables or passages of the source.

Assays:
M-HeLa = assay: MTT cytotoxicity test, M-HeLa cells; assay type: cell-based, human; conditions: 24 h incubation, tested at 1–100 µM, three independent experiments, read-out: IC50 (µM) Cancer Cell Lines M-HeLa
HuTu 80 = assay: MTT cytotoxicity test, HuTu 80 cells; assay type: cell-based, human; conditions: for IC50: MTT test, 24 h incubation, tested at 1–100 µM, three independent experiments, read-out: IC50 (µM) Cancer Cell Lines HuTu 80; for selectivity index, SI = IC50(Chang liver)/IC50(HuTu 80): normal Chang liver vs HuTu 80
Chang liver = assay: MTT cytotoxicity test, normal Chang liver cells; assay type: cell-based, human; conditions: 24 h incubation, tested at 1–100 µM, three independent experiments, read-out: IC50 (µM) Normal Cell Lines Chang Liver

SMILES | IC50 (M-HeLa; Homo sapiens, M-HeLa) | IC50 (HuTu 80; Homo sapiens, HuTu80) | IC50 (Chang liver; Homo sapiens, Chang liver) | melting point | selectivity index, SI = IC50(Chang liver)/IC50(HuTu 80) (HuTu 80) | IC50 (M-HeLa) | IC50 (HuTu 80) | IC50 (Chang liver)
Cc1ncc(CO)c2cc(C(=O)O)c(=O)oc12 [3a, 5-(hydroxymethyl)-8-methyl-2-oxo-2H-pyrano[2,3-c]pyridin-7-ium-3-carboxylate] | 75.5 ± 6 µM | 57.6 ± 4.6 µM | 58 ± 4.7 µM | 249 to 250 °C |  |  |  | 
Cc1ncc(COP(=O)(O)O)c2cc(C(=O)O)c(=O)oc12 [3b, 8-methyl-2-oxo-5-((phosphonooxy)methyl)-2H-pyrano[2,3-c]pyridin-7-ium-3-carboxylate] | 70.6 ± 5.7 µM | 60.5 ± 5.3 µM | 70 ± 5.6 µM | > 300 °C |  |  |  | 
O=c1[nH]cc(F)c(=O)[nH]1 [5-fluorouracil, reference compound] | 62 ± 4.7 µM | 65.2 ± 5.4 µM | 86.3 ± 6.5 µM |  |  |  |  | 
Cc1ncc(CCl)c2cc(C(=O)Nc3ccccc3)c(=O)oc12 [7a, 5-(Chloromethyl)-8-methyl-2-oxo-N-phenyl-2aH-pyrano[2,3-c]pyridine-3-carboxamide] | > 100 µM | 59.4 ± 4.8 µM | 56.6 ± 4.5 µM | 240 °C (dec.) |  |  |  | 
COc1ccccc1NC(=O)c1cc2c(CCl)cnc(C)c2oc1=O [7b, 5-(Chloromethyl)-N-(2-methoxyphenyl)-8-methyl-2-oxo-2H-pyrano[2,3-c]pyridine-3-carboxamide] | 84.4 ± 5.5 µM | 55.3 ± 3.9 µM | 46 ± 3.2 µM | 214 to 215 °C |  |  |  | 
Cc1ncc(CCl)c2cc(C(=O)Nc3ccc([N+](=O)[O-])cc3Br)c(=O)oc12 [7c, N-(2-Bromo-4-nitrophenyl)-5-(chloromethyl)-8-methyl-2-oxo-2H-pyrano[2,3-c]pyridine-3-carboxamide] | 67.4 ± 4.6 µM | 43 ± 3.5 µM | 89.4 ± 6.3 µM | 240 °C (dec.) |  |  |  | 
Cc1ncc(CCl)c2cc(C(=O)Nc3ccccn3)c(=O)oc12 [7d, 5-(Chloromethyl)-8-methyl-2-oxo-N-(pyridin-2-yl)-2H-pyrano[2,3-c]pyridine-3-carboxamide] | 84 ± 5.9 µM | 62 ± 4.3 µM | 88 ± 6.2 µM | > 300 °C |  |  |  | 
Cc1ncc(CCl)c2cc(C(=O)Nc3cccnc3N)c(=O)oc12 [7e, N-(2-Aminopyridin-3-yl)-5-(chloromethyl)-8-methyl-2-oxo-2H-pyrano[2,3-c]pyridine-3-carboxamide] | 54.3 ± 3.6 µM | 72 ± 5.2 µM | 55.3 ± 3.7 µM | > 300 °C |  |  |  | 
Cc1ncc(CCl)c2cc(C(=O)N(c3ccccc3)c3ccccc3)c(=O)oc12.Cl [7f, 5-(Chloromethyl)-3-(diphenylcarbamoyl)-8-methyl-2-oxo-2H-pyrano[2,3-c]pyridin-7-ium chloride] | 32 ± 2.2 µM | 17.4 ± 1.3 µM | 48.4 ± 3.3 µM | 201 to 205 °C |  |  |  | 
C#CCNC(=O)c1cc2c(CCl)cnc(C)c2oc1=O [7g, 5-(Chloromethyl)-8-methyl-2-oxo-N-(prop-2-yn-1-yl)-2H-pyrano[2,3-c]pyridine-3-carboxamide] | 14.1 ± 1.2 µM | 11.2 ± 0.9 µM | 13.9 ± 0.3 µM | 161 °C (dec.) |  |  |  | 
Cc1ncc(CCl)c2cc(C(=O)Nc3ccc(S(N)(=O)=O)cc3)c(=O)oc12 [7h, 5-(Chloromethyl)-8-methyl-2-oxo-N-(4-sulfamoylphenyl)-2H-pyrano[2,3-c]pyridine-3-carboxamide] | 14.8 ± 1.3 µM | 2.9 ± 0.2 µM | 29.8 ± 2 µM | > 300 °C | 10 |  |  | 
CC(=O)NS(=O)(=O)c1ccc(NC(=O)c2cc3c(CCl)cnc(C)c3oc2=O)cc1 [7i, N-(4-(N-Acetylsulfamoyl)phenyl)-5-(chloromethyl)-8-methyl-2-oxo-2H-pyrano[2,3-c]pyridine-3-carboxamide] | 77.8 ± 5.4 µM | 31 ± 1.9 µM | 116 ± 8.1 µM | > 300 °C |  |  |  | 
Cc1ncc(CCl)c2cc(C(=O)Nc3ccc(S(=O)(=O)Nc4ncccn4)cc3)c(=O)oc12 [7j, 5-(Chloromethyl)-8-methyl-2-oxo-N-(4-(N-(pyrimidin-2-yl)sulfamoyl)phenyl)-2H-pyrano[2,3-c]pyridine-3-carboxamide] | 73.4 ± 5.2 µM | 32 ± 2.1 µM | 73 ± 5.5 µM | > 300 °C |  |  |  | 
Cc1ccnc(NS(=O)(=O)c2ccc(NC(=O)c3cc4c(CCl)cnc(C)c4oc3=O)cc2)n1 [7k, 5-(Chloromethyl)-8-methyl-N-(4-(N-(4-methylpyrimidin-2-yl)sulfamoyl)phenyl)-2-oxo-2H-pyrano[2,3-c]pyridine-3-carboxamide] | 47 ± 3.1 µM | 18.1 ± 1.4 µM | 61.3 ± 4.2 µM | > 300 °C |  |  |  | 
Cc1cc(C)nc(NS(=O)(=O)c2ccc(NC(=O)c3cc4c(CCl)cnc(C)c4oc3=O)cc2)n1 [7l, 5-(Chloromethyl)-N-(4-(N-(4,6-dimethylpyrimidin-2-yl)sulfamoyl)phenyl)-8-methyl-2-oxo-2H-pyrano[2,3-c]pyridine-3-carboxamide] | 62.4 ± 4.4 µM | 52.1 ± 3.4 µM | 126 ± 8.8 µM | > 300 °C |  |  |  | 
Cc1ncc(CCl)c2cc(C(=O)NNC(=O)c3ccccc3)c(=O)oc12 [7m, N′-Benzoyl-5-(chloromethyl)-8-methyl-2-oxo-2H-pyrano[2,3-c]pyridine-3-carbohydrazide] | 61.1 ± 4.2 µM | 49.7 ± 3.5 µM | 62.4 ± 4.9 µM | 240 °C (dec.) |  |  |  | 
Cc1ncc(CCl)c2cc(C(=O)NNC(=O)c3ccncc3)c(=O)oc12 [7n, 5-(Chloromethyl)-N′-isonicotinoyl-8-methyl-2-oxo-2H-pyrano[2,3-c]pyridine-3-carbohydrazide] | 93.1 ± 6.6 µM | 61.2 ± 4.2 µM | 64.1 ± 4.8 µM | > 300 °C |  |  |  | 
Cc1ncc(CCl)c2cc(C(=O)Nc3ccccc3NC(=O)c3cc4c(CCl)cnc(C)c4oc3=O)c(=O)oc12 [7o, N,N′-(1,2-Phenylene)bis(5-(chloromethyl)-8-methyl-2-oxo-2H-pyrano[2,3-c]pyridine-3-carboxamide)] | 22.5 ± 1.8 µM | 3.1 ± 0.2 µM | 11.8 ± 0.9 µM | 239 to 241 °C | 3.8 |  |  | 
Cc1ncc(CCl)c2cc(C(=O)Nc3cccc(NC(=O)c4cc5c(CCl)cnc(C)c5oc4=O)c3)c(=O)oc12 [7p, N,N′-(1,3-Phenylene)bis(5-(chloromethyl)-8-methyl-2-oxo-2H-pyrano[2,3-c]pyridine-3-carboxamide)] | 63 ± 4.4 µM | 81.5 ± 5.7 µM | 37 ± 2.6 µM | 274 °C (dec.) |  |  |  | 
Cc1ncc(CCl)c2cc(C(=O)Nc3ccc(NC(=O)c4cc5c(CCl)cnc(C)c5oc4=O)cc3)c(=O)oc12 [7q, N,N′-(1,4-Phenylene)bis(5-(chloromethyl)-8-methyl-2-oxo-2H-pyrano[2,3-c]pyridine-3-carboxamide)] | 84.3 ± 5.9 µM | 95.4 ± 6.5 µM | > 100 µM | > 300 °C |  |  |  | 
Cc1ncc(CCl)c2cc(C(=O)Nc3cccc(S(=O)(=O)c4cccc(NC(=O)c5cc6c(CCl)cnc(C)c6oc5=O)c4)c3)c(=O)oc12 [7s, N,N′-(Sulfonylbis(3,1-phenylene))bis(5-(chloromethyl)-8-methyl-2-oxo-2H-pyrano[2,3-c]pyridine-3-carboxamide)] | 80 ± 5.7 µM | 13.8 ± 1.1 µM | 125 ± 11 µM | > 300 °C | 9 |  |  | 
Cc1ncc(CO)c2cc(C(=O)O)c(=O)oc12.NC1CCCCC1 [8b, Cyclohexanaminium 5-(hydroxymethyl)-8-methyl-2-oxo-2H-pyrano[2,3-c]pyridine-3-carboxylate] |  |  |  |  |  | 70.4 ± 5.7 µM | 78.2 ± 6.3 µM | 81 ± 6.5 µM
Cc1ncc(CO)c2cc(C(=O)O)c(=O)oc12.Cc1ncc(CO)c2cc(C(=O)O)c(=O)oc12.Nc1cccc(N)n1 [8d, Pyridine-2,6-diaminium 5-(hydroxymethyl)-8-methyl-2-oxo-2H-pyrano[2,3-c]pyridine-3-carboxylate] |  |  |  |  |  | > 100 µM | 88.4 ± 7 µM | 64.1 ± 5.1 µM
Cc1ncc(COP(=O)(O)O)c2cc(C(=O)O)c(=O)oc12.Nc1ccccn1 [8e, Pyridin-2-aminium 8-methyl-2-oxo-5-((phosphonooxy)methyl)-2H-pyrano[2,3-c]pyridine-3-carboxylate] |  |  |  |  |  | 99.5 ± 7.1 µM | 59 ± 4.1 µM | 78.4 ± 6.3 µM
COc1cccc2c1C(=O)c1c(O)c3c(c(O)c1C2=O)C[C@@](O)(C(=O)CO)C[C@@H]3O[C@H]1C[C@H](N)[C@H](O)[C@H](C)O1 [Doxorubicin, reference compound] | 3 ± 0.2 µM | 3 ± 0.2 µM | 3 ± 0.1 µM |  | 1 |  |  | 
Cc1ncc(CO)c2c1OC1=C(C(=O)CC(C)(C)C1)C2C1=C(O)CC(C)(C)CC1=O (stereo not shown) [compound 4, 5-(2-hydroxy-4,4-dimethyl-6-oxocyclohex-1-en-1-yl)-4-(hydroxymethyl)-1,8,8-trimethyl-5,7,8,9-tetrahydro-6H-chromeno[2,3-c]pyridin-6-one] |  |  |  | 219 to 224 °C |  |  |  | 
